Source: US12215085B2 (priority 2019, dated 2025)
Marks after values point to notes of the source that are not given here.

Legend:
rat = experiment: Acute toxicity LD50, rat; conditions: clinical daily dosage 8 mg/60 kg human/day, per kilogram body weight
Acute toxicity LD50, rat = conditions: in vivo, po
[1] = system: rats with common carotid artery occlusion-induced vascular dementia; experiment: Water maze test, common carotid artery occlusion-induced vascular dementia rats; format: in vivo, rat; conditions: for adopted strategy for reaching the platform (the peripheral type and the random type %) / orientation angle for reaching the platform / speed for reaching the platform / swimming path length for reaching the platform / time for reaching the platform / Average speed / Number of crossing the platform / Orientation angle / Swimming path length in the platform area/total swimming path length × 100% / Time in the platform area / Time in the platform quadrants: succinate; for orientation angle for reaching the platform / speed for reaching the platform / swimming path length for reaching the platform / time for reaching the platform: x ± s
From the text: A rat blood vessel dementia model was made according to the references [ZHAO Xian-lin, FANG Xiu-bin, LI Dong-pei. Establishment of Vascular Dementia Model in Rats, J Chin Med Univ, 2002, 31 (3): 166-168; WANG Yong-yan, Zhang Bo-li, Editor-in-chief. Modern Chinese Medicine Clinic and Research on Vascular Dementia, People's Medical Publishing House, October 2003, First Version 214]: Chloral hydrate 0.4 g/kg was intraperitoneally injected for anesthetizing rats, and bilateral common carotid arteries were isolated and ligated. The animals were fed for 16 weeks, divided into groups on the last 7 days, and administered. The normal control group and the model group were administrated through the intragastric route with distilled water by 0.5 ml/100 g, the positive control group was administrated through the intragastric route with donepezil hydrochloride by 1.75 mg/kg (equivalent to 3.85 times the clinical daily dosage of 5 mg/70 kg), the low, medium and high-dose groups of Crystal Form A of octahydroaminoacridine succinate were administrated through the intragastric route with Crystal Form A of octahydroaminoacridine succinate by 0.7, 1.4 and 2.8 mg/kg (equivalent to 0.96, 1.92 and 3.85 times the clinical daily dosage of 8 mg/70 kg). The water maze test and the step-down test were carried out after continuous administration for 7 days, and the administration was continued during the test period. The water maze test was continuously performed for 7 days, in the first 6 days, in four different water entry points of quadrants 1, 2, 3 and 4, the time, the swimming path length, the orientation angle and the average speed of the rat reaching the platform were measured, meanwhile, the strategy for reaching the platform adopted by rats was observed, on the 7th day, the platform was removed, the number of rats crossing the platform in 2 minutes, the residence time in the platform area, the residence time in the platform quadrants, the percentage of the swimming path length in the platform area quadrants to the total swimming path length, the average speed and the orientation angle were measured. After the water maze test was finished, the step-down test was performed, and the number of electric shocks (or called as the error number) received by each rat within 5 minutes was recorded as the learning performance. The test was performed again after 24 hours, namely, the memory retention test, and the latent period for stepping-down the platform for the first time and the error number in five minutes were recorded. After the step-down test was finished, the brain was taken quickly for pathological examination, and the pathological changes of the hippocampus and the cortex were observed.

normal anesthetized dogs = experiment: General pharmacological indexes of normal anesthetized dog; format: in vivo; conditions: 0.8, 1.6 and 3.2 mg/kg
From the text: Meanwhile, the influence of Crystal Form A of octahydroaminoacridine succinate on the general pharmacological indexes of the normal anesthetized dog was observed.

[2] = Day 1, 0.7 mg/kg intragastric, 0.7 mg/kg
[3] = Day 1, 1.4 mg/kg intragastric, 1.4 mg/kg
[4] = Day 1, 2.8 mg/kg intragastric, 2.8 mg/kg
[5] = Day 2, 0.7 mg/kg intragastric, 0.7 mg/kg
[6] = Day 2, 1.4 mg/kg intragastric, 1.4 mg/kg
[7] = Day 2, 2.8 mg/kg intragastric, 2.8 mg/kg
[8] = Day 3, 0.7 mg/kg intragastric, 0.7 mg/kg
[9] = Day 3, 1.4 mg/kg intragastric, 1.4 mg/kg
[10] = Day 3, 2.8 mg/kg intragastric, 2.8 mg/kg
[11] = Day 4, 0.7 mg/kg intragastric, 0.7 mg/kg
[12] = Day 4, 1.4 mg/kg intragastric, 1.4 mg/kg
[13] = Day 4, 2.8 mg/kg intragastric, 2.8 mg/kg
[14] = Day 5, 0.7 mg/kg intragastric, 0.7 mg/kg
[15] = Day 5, 1.4 mg/kg intragastric, 1.4 mg/kg
[16] = Day 5, 2.8 mg/kg intragastric, 2.8 mg/kg
[17] = Day 6, 0.7 mg/kg intragastric, 0.7 mg/kg
[18] = Day 6, 1.4 mg/kg intragastric, 1.4 mg/kg
[19] = Day 6, 2.8 mg/kg intragastric, 2.8 mg/kg
[20] = Day 7, 0.7 mg/kg intragastric, 0.7 mg/kg
[21] = Day 7, 1.4 mg/kg intragastric, 1.4 mg/kg
[22] = Day 7, 2.8 mg/kg intragastric, 2.8 mg/kg

SMILES: Nc1c2c(nc3c1CCCC3)CCCC2.O=C(O)CCC(=O)O [Crystal Form A, 9-amino-1,2,3,4,5,6,7,8-octahydroacridine succinate]
- LD50 as multiple of the clinical daily dosage (rat): ~824.3 times
- LD50 (Acute toxicity LD50, rat): 110 ± 9.1 mg/kg
- swimming path length for reaching the platform vs model group ([1]; 1.4 mg/kg, Day 4, P<0.05): obviously shortened
- latent period for reaching the platform vs model group ([1]; 1.4 mg/kg, Day 4 to Day 6, P<0.05 or P<0.01): obviously shortened
- swimming path length for reaching the platform vs model group ([1]; 2.8 mg/kg, Day 3, P<0.05): obviously shortened
- latent period for reaching the platform vs model group ([1]; 2.8 mg/kg, Day 3 to Day 6, P<0.05 or P<0.01): obviously shortened
- orientation angle and swimming speed vs model group ([1]; 0.7, 1.4 and 2.8 mg/kg, Day 1 to Day 6): not obviously changed
- residence time in the platform quadrants, average speed, orientation angle and percentage of the swimming path length in the platform area quadrants to the total swimming path length vs model group ([1]; 0.7, 1.4 and 2.8 mg/kg, Day 7): not obviously changed
- number of rats crossing the platform within 2 minutes vs model group ([1]; 1.4 and 2.8 mg/kg, Day 7, P<0.05): obviously increased
- conversion from the peripheral type or the random type to the tendency type or the linear type in the strategy for looking for the platform ([1]; 1.4 and 2.8 mg/kg, P<0.05 or P<0.01): obviously increased
- adopted strategy for reaching the platform (the peripheral type and the random type %) [1, 2]: 75.00%
- orientation angle for reaching the platform [1, 2]: 64.44 ± 24.84 °
- speed for reaching the platform [1, 2]: 21.68 ± 6.14 cm/s
- swimming path length for reaching the platform [1, 2]: 1250.31 ± 599.61 cm
- time for reaching the platform [1, 2]: 60.40 ± 30.23 s
- adopted strategy for reaching the platform (the peripheral type and the random type %) [1, 3]: 92.50%
- orientation angle for reaching the platform [1, 3]: 63.00 ± 21.34 °
- speed for reaching the platform [1, 3]: 22.93 ± 7.28 cm/s
- swimming path length for reaching the platform [1, 3]: 1491.17 ± 529.46 cm
- time for reaching the platform [1, 3]: 75.55 ± 32.44 s
- adopted strategy for reaching the platform (the peripheral type and the random type %) [1, 4]: 87.50%
- orientation angle for reaching the platform [1, 4]: 75.34 ± 20.00 °
- speed for reaching the platform [1, 4]: 23.52 ± 5.71 cm/s
- swimming path length for reaching the platform [1, 4]: 1555.98 ± 522.10 cm
- time for reaching the platform [1, 4]: 69.25 ± 15.97 s
- adopted strategy for reaching the platform (the peripheral type and the random type %) [1, 5]: 86.00%
- orientation angle for reaching the platform [1, 5]: 52.13 ± 14.28 °
- speed for reaching the platform [1, 5]: 23.68 ± 5.10 cm/s
- swimming path length for reaching the platform [1, 5]: 1368.59 ± 636.46 cm
- time for reaching the platform [1, 5]: 55.04 ± 31.39 s
- adopted strategy for reaching the platform (the peripheral type and the random type %) [1, 6]: 65.00%
- orientation angle for reaching the platform [1, 6]: 48.91 ± 15.52 °
- speed for reaching the platform [1, 6]: 29.02 ± 6.70 cm/s
- swimming path length for reaching the platform [1, 6]: 917.85 ± 346.36 cm
- time for reaching the platform [1, 6]: 38.71 ± 18.28 s
- adopted strategy for reaching the platform (the peripheral type and the random type %) [1, 7]: 82.50%
- orientation angle for reaching the platform [1, 7]: 57.20 ± 22.99 °
- speed for reaching the platform [1, 7]: 28.32 ± 7.08 cm/s
- swimming path length for reaching the platform [1, 7]: 1025.55 ± 559.44 cm
- time for reaching the platform [1, 7]: 40.76 ± 23.88 s
- adopted strategy for reaching the platform (the peripheral type and the random type %) [1, 8]: 66.67%
- orientation angle for reaching the platform [1, 8]: 57.18 ± 14.54 °
- speed for reaching the platform [1, 8]: 26.27 ± 6.15 cm/s
- swimming path length for reaching the platform [1, 8]: 698.11 ± 448.85 cm
- time for reaching the platform [1, 8]: 29.31 ± 15.94 s
- adopted strategy for reaching the platform (the peripheral type and the random type %) [1, 9]: 65.00* %
- orientation angle for reaching the platform [1, 9]: 53.59 ± 14.56 °
- speed for reaching the platform [1, 9]: 25.25 ± 5.42 cm/s
- swimming path length for reaching the platform [1, 9]: 804.05 ± 351.90 cm
- time for reaching the platform [1, 9]: 30.21 ± 14.13 s
- adopted strategy for reaching the platform (the peripheral type and the random type %) [1, 10]: 60.00* %
- orientation angle for reaching the platform [1, 10]: 41.65 ± 17.28 °
- speed for reaching the platform [1, 10]: 24.59 ± 6.25 cm/s
- swimming path length for reaching the platform [1, 10]: 512.17 ± 265.98 cm
- time for reaching the platform [1, 10]: 21.75 ± 9.58 s
- adopted strategy for reaching the platform (the peripheral type and the random type %) [1, 11]: 69.00%
- orientation angle for reaching the platform [1, 11]: 55.89 ± 20.65 °
- speed for reaching the platform [1, 11]: 25.53 ± 8.12 cm/s
- swimming path length for reaching the platform [1, 11]: 838.00 ± 799.29 cm
- time for reaching the platform [1, 11]: 35.34 ± 35.48 s
- adopted strategy for reaching the platform (the peripheral type and the random type %) [1, 12]: 42.50** %
- orientation angle for reaching the platform [1, 12]: 50.23 ± 20.86 °
- speed for reaching the platform [1, 12]: 28.54 ± 9.09 cm/s
- swimming path length for reaching the platform [1, 12]: 461.53 ± 216.01 cm
- time for reaching the platform [1, 12]: 19.79 ± 10.95 s
- adopted strategy for reaching the platform (the peripheral type and the random type %) [1, 13]: 62.50* %
- orientation angle for reaching the platform [1, 13]: 57.00 ± 17.94 °
- speed for reaching the platform [1, 13]: 27.72 ± 6.59 cm/s
- swimming path length for reaching the platform [1, 13]: 827.58 ± 463.98 cm
- time for reaching the platform [1, 13]: 22.79 ± 10.04 s
- adopted strategy for reaching the platform (the peripheral type and the random type %) [1, 14]: 67.00%
- orientation angle for reaching the platform [1, 14]: 62.38 ± 27.61 °
- speed for reaching the platform [1, 14]: 24.14 ± 7.38 cm/s
- swimming path length for reaching the platform [1, 14]: 878.23 ± 464.48 cm
- time for reaching the platform [1, 14]: 71.16 ± 34.92 s
- adopted strategy for reaching the platform (the peripheral type and the random type %) [1, 15]: 60.00%
- orientation angle for reaching the platform [1, 15]: 55.03 ± 19.71 °
- speed for reaching the platform [1, 15]: 29.15 ± 10.97 cm/s
- swimming path length for reaching the platform [1, 15]: 515.67 ± 565.72 cm
- time for reaching the platform [1, 15]: 16.28 ± 11.42 s
- adopted strategy for reaching the platform (the peripheral type and the random type %) [1, 16]: 57.50%
- orientation angle for reaching the platform [1, 16]: 55.78 ± 27.48 °
- speed for reaching the platform [1, 16]: 27.44 ± 4.86 cm/s
- swimming path length for reaching the platform [1, 16]: 676.75 ± 429.93 cm
- time for reaching the platform [1, 16]: 21.57 ± 17.15 s
- adopted strategy for reaching the platform (the peripheral type and the random type %) [1, 17]: 66.60%
- orientation angle for reaching the platform [1, 17]: 46.48 ± 22.04 °
- speed for reaching the platform [1, 17]: 22.02 ± 6.73 cm/s
- swimming path length for reaching the platform [1, 17]: 606.62 ± 360.87 cm
- time for reaching the platform [1, 17]: 37.72 ± 30.12 s
- adopted strategy for reaching the platform (the peripheral type and the random type %) [1, 18]: 60.00* %
- orientation angle for reaching the platform [1, 18]: 53.94 ± 12.47 °
- speed for reaching the platform [1, 18]: 23.52 ± 2.43 cm/s
- swimming path length for reaching the platform [1, 18]: 393.13 ± 236.85 cm
- time for reaching the platform [1, 18]: 16.62 ± 8.69 s
- adopted strategy for reaching the platform (the peripheral type and the random type %) [1, 19]: 55.00* %
- orientation angle for reaching the platform [1, 19]: 52.70 ± 15.27 °
- speed for reaching the platform [1, 19]: 23.55 ± 2.66 cm/s
- swimming path length for reaching the platform [1, 19]: 433.81 ± 327.88 cm
- time for reaching the platform [1, 19]: 18.98 ± 13.68 s
- Average speed [1, 20]: 24.04 ± 7.96 cm/s
- Number of crossing the platform [1, 20]: 5.55 ± 4.47
- Orientation angle [1, 20]: 5.56 ± 4.47 °
- Swimming path length in the platform area/total swimming path length × 100% [1, 20]: 26.83 ± 7.77%
- Time in the platform area [1, 20]: 1.86 ± 1.78 s
- Time in the platform quadrants [1, 20]: 33.93 ± 11.68 s
- Average speed [1, 21]: 28.44 ± 9.02 cm/s
- Number of crossing the platform [1, 21]: 12.20 ± 5.99
- Orientation angle [1, 21]: 12.20 ± 5.99 °
- Swimming path length in the platform area/total swimming path length × 100% [1, 21]: 31.89 ± 9.92%
- Time in the platform area [1, 21]: 3.18 ± 2.02 s
- Time in the platform quadrants [1, 21]: 40.31 ± 12.72 s
- Average speed [1, 22]: 26.15 ± 5.40 cm/s
- Number of crossing the platform [1, 22]: 10.40 ± 4.40
- Orientation angle [1, 22]: 10.40 ± 4.40 °
- Swimming path length in the platform area/total swimming path length × 100% [1, 22]: 28.40 ± 8.75%
- Time in the platform area [1, 22]: 3.23 ± 3.70 s
- Time in the platform quadrants [1, 22]: 33.72 ± 10.48 s
- respiratory frequency, respiratory amplitude, arterial blood pressure, heart rate and electrocardiogram (normal anesthetized dogs): no obvious influence
